Literature values, collected in patent publication US12295956B2, “Anti-viral compositions” (Calladine Pharmaceuticals Limited, priority 2018, dated 2025).

Assays:
[1] = gentle heating to a pourable hot liquid

**Q.** With `Nc1nc2c(ncn2COCCO)c(=O)[nH]1` [Aciclovir, aciclovir] as the compound, how does the heat stability [1] read?
**A.** Its heat stability is “relatively heat stable”.

**Q.** What about the “solubility in hydrophobic solvent systems” value (hydrophobic solvent systems) of the same compound?
**A.** The value was “almost totally insoluble”.

**Q.** And the solubility in water (water)?
**A.** The solubility in water was “poor solubility in water”.
